Results published in patent US20170105949A1, “METHOD FOR IMPROVING FEED EFFICIENCY IN RUMINANTS” (Rivalea (Australia) Pty Ltd, priority 2014, published 2017).
Counter-ions that a name gives are not always drawn.

Key:
[1] = Growth performance and feed efficiency of lambs fed pelleted test diets ad libitum (live weight, feed intake by disappearance); assay type: in vivo, lambs (Border Leister x Merino)
Source text: Lambs were used in this study as the model animal representing ruminants. Previous research has shown similar growth performance, feed efficiency and carcass benefits from the inclusion of Ractopamine in cattle and lamb diets. Given this, it is expected that the outcomes from feeding RAC and caffeine in combination to finishing lambs can be translated to expected results in other ruminants such as cattle. The surprising results found in lambs show promise for use of RAC and caffeine in other ruminants, particularly cattle where RAC is an approved animal feed additive.
(§1) A total of 36 male lambs (Border Leister x Merino) were selected at approximately 14 weeks of age and housed in pens of two lambs per pen in a naturally ventilated shed. Lambs were fed a commercial lamb finisher diet for a 14 day acclimatisation period prior to the start of the test period. In addition, all lambs were offered 250 g lucerne hay per day as roughage. At the start of the test period, lambs were individually weighed (average weight 29.8 kg±0.29 kg), ear tagged and the pen randomly allocated to one of three dietary treatments:
(§2) A: Control (no RAC or Caffeine for the entire 56 day test period)
(§3) B: RAC (20 ppm (20 g/t) RAC for the entire 56 day test period)
(§4) C: RAC +Caffeine (20 ppm (20 g/t)) RAC offered from day 0 to day 21, followed by 20 ppm (20 g/t) RAC plus 0.5 kg/t caffeine offered from day 21 to day 56).
(§5) Diets were pelleted and fed ad libitum for the entire test period, while water was also freely available at all times. In addition to the pelleted test feeds, each lamb was offered 200 g lucerne hay per day (floor fed) as an additional source of roughage.
Lambs were shorn prior to entry to the facility to minimise the impact of wool growth on rate of gain measurements and body composition analysis. Individual weights were recorded periodically throughout the test period (Days 0, 21, 35 and 56), while intake of the pelleted test diets was measured by feed disappearance and feed efficiency subsequently calculated.
No attempt was made to measure feed residues of the lucerne hay as the lambs consumed this rapidly and the volume of wastage was considered insignificant.
(§6) Data were subjected to an analysis of variance (ANOVA) for the main effect of dietary treatment. Data for treatments B and C were pooled for the initial 21 day feeding period as both treatment groups were fed the same diet during this time period. The experimental unit for all analyses was the pen of ruminant. All analyses were performed using Genstat 16th Edition (Payne RW, Harding SA, Genstat Committee 2005 Genstat release 8 reference manual, USN International: Oxford UK).

[2] = Body composition of lambs by dual energy x-ray absorptiometry (DXA) scanning; assay type: in vivo, lambs (Border Leister x Merino)
Source text: as §1, §2, §3, §4, §5
Dual energy x-ray absorptiometry (DXA) scanning was undertaken using a Hologic X-Ray Bone Densitometer (Hologic Inc, Waltham, Mass., USA) at day 21 and day 56 of the test period. All lambs were weighed on the day of scanning (prior to anaesthesia). Lambs were sedated using xylazine (administered intramuscularly) and anaesthetised with ketamine intra venously under veterinary direction. Once anaesthetised, lambs were positioned in a ventral recumbency with their hind legs extended and forelegs positioned caudally to accommodate the DXA regional analysis software. The whole body scan mode was used for each animal, with the length of the scan adjusted for the length of the lamb. Following DXA analysis, lambs were monitored by a veterinarian for full recovery from anaesthesia. As the DXA software generates body composition estimates for humans, the raw DXA output from each scan was adjusted for lambs using equations developed by comparisons with actual empty body chemical composition (Hunter 2000).
as §6

[3] = RAC 20 ppm throughout, RAC + Caffeine: 0.5 kg/t caffeine added from day 21, day 0 weight as covariate
[4] = RAC 20 ppm, RAC + Caffeine: 20 ppm RAC plus 0.5 kg/t caffeine from day 21
[5] = day 0 to day 21, 20 ppm RAC in diet, treatments B and C pooled
[6] = entire test period, RAC 20 ppm, RAC + Caffeine: caffeine 0.5 kg/t added day 21-56
[7] = DXA, RAC 20 ppm day 0-56, RAC + Caffeine: caffeine 0.5 kg/t added day 21-56, live weight day 56 as covariate
[8] = DXA, RAC treatment groups pooled, 20 ppm RAC day 0-21
[9] = DXA, both groups 20 ppm RAC day 0-21, live weight day 21 as covariate

CC(CCc1ccc(O)cc1)NCC(O)c1ccc(O)cc1 (racemic) [RAC, Ractopamine hydrochloride]
Live weight day 21 ([1]; 20 ppm RAC in diet day 0-21, treatments B and C pooled, day 0 weight as covariate): 37.9 kg | Live weight Day 35 [1, 3]: 43.6 kg | Live weight Day 56 [1, 3]: 47.3 kg | ADFI Day 21-35 [1, 4]: 1.77 kg/day | ADFI Day 21-56 [1, 4]: 1.82 kg/day | ADFI Day 35-56 [1, 4]: 1.77 kg/day | ADG Day 21-35 [1, 4]: 0.380 kg/day | ADG Day 21-56 [1, 4]: 0.266 kg/day | ADG Day 35-56 [1, 4]: 0.177 kg/day | FCE Day 21-35 [1, 4]: 0.214 gain/feed | FCE Day 21-56 [1, 4]: 0.144 gain/feed | FCE Day 35-56 [1, 4]: 0.113 gain/feed | ADFI [1, 5]: 1.40 kg/day | ADG [1, 5]: 0.388 kg/day | FCE (gain/feed) [1, 5]: 0.28 gain/feed | ADFI Day 0-56 [1, 6]: 1.67 kg/day | ADG Day 0-56 [1, 6]: 0.317 kg/day | FCE Day 0-56 [1, 6]: 0.189 gain/feed | Live weight Day 21 ([1]; three treatments, both groups 20 ppm RAC day 0-21, day 0 weight as covariate): 38.2 kg | Adipose tissue (%) Day 56 [2, 7]: 22.90% | Bone mineral content (%) Day 56 [2, 7]: 3.01% | Lean tissue (%) Day 56 [2, 7]: 72.64% | adipose tissue at day 21, pooled data [2, 8]: 19.24% | percentage of lean tissue at day 21, pooled data [2, 8]: 76.83% | Adipose tissue (%) Day 21 [2, 9]: 19.18% | Bone mineral content (%) Day 21 [2, 9]: 2.95% | Lean tissue (%) Day 21 [2, 9]: 76.84% | Feed efficiency for lean tissue deposition (kg lean tissue gain: kg feed intake) Day 21-56 [2, 4]: 0.073 kg lean tissue gain: kg feed intake
